Laboratory results from the Kinase Knowledgebase extract (Sharma et al. 2016).
pIC50: −log10 of the molar value.

Legend:
[1] = target: MAPK14 (human) (UniProt Q16539); assay: Inhibition of MAPK14 Kinase Activity by PHAS-I Assay; conditions: for inhibition: concentration not given here
[2] = target: MAPK14 (human) (UniProt Q16539); assay: Inhibition of LPS Stimulated TNF Production by U937 Cells; conditions: for inhibition: concentration not given here

Chain of MAPK14 (human) (Q16539 whole entry, looked up): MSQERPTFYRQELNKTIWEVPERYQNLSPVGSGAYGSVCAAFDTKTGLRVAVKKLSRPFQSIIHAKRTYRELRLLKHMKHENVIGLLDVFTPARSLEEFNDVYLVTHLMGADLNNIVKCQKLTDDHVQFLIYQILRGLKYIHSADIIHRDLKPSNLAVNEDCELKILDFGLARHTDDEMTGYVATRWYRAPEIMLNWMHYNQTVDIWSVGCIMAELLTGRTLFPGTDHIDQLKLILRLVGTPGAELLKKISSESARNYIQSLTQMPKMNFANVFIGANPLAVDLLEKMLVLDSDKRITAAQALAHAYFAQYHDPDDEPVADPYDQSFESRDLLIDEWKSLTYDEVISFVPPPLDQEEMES

Row | pIC50 [1] | inhibition [2] | inhibition [1] | pIC50 [2] | SMILES
1 | 5.16 | 38% | – | – | C[C@H](NC(=O)Nc1ccccc1F)c1[nH]nc(-c2ccc(F)cc2)c1-c1ccncc1
2 | – | 28% | 90% | – | Cc1c(-c2ccncc2)c(-c2ccc(F)cc2)nn1CC(=O)Nc1ccc(S(=O)(=O)C(F)F)cc1
3 | – | 38% | 69% | – | O=C(NCCc1[nH]nc(-c2ccc(F)cc2)c1-c1ccncc1)c1ccncc1
4 | – | 66% | 79% | – | O=C(NCCCc1[nH]nc(-c2ccc(F)cc2)c1-c1ccncc1)C1CCCC1
5 | – | – | 75% | < 5.00 | COc1ccc(CN(CCc2ccccc2)C(=O)Cn2nc(-c3ccc(F)cc3)c(-c3ccncc3)c2C)cc1
6 | – | – | 43% | < 5.00 | Cc1c(-c2ccncc2)c(-c2ccc(F)cc2)nn1CC(=O)N(C)CCn1ccnc1
7 | – | 36% | 54% | – | CCN(CC)C(=O)Cn1nc(-c2ccc(F)cc2)c(-c2ccncc2)c1C
8 | > 7.00 | 26% | – | – | CC1(C)[C@H]2CC[C@@]1(CS(=O)(=O)NCCc1[nH]nc(-c3ccc(F)cc3)c1-c1ccncc1)C(=O)C2
9 | 6.80 | 44% | – | – | CC1(C)[C@@H]2CC[C@]1(CS(=O)(=O)NCCc1[nH]nc(-c3ccc(F)cc3)c1-c1ccncc1)C(=O)C2
10 | – | 35% | 27% | – | O=C(NCc1[nH]nc(-c2ccc(F)cc2)c1-c1ccncc1)Nc1ccc(I)cc1
11 | – | 28% | 65% | – | Cc1c(-c2ccncc2)c(-c2ccc(F)cc2)nn1CC(=O)NC(C)Cc1c[nH]c2ccccc12 (stereo not drawn)
12 | 6.12 | 70% | – | – | C[C@H](NS(=O)(=O)c1ccccc1C(=O)O)c1[nH]nc(-c2ccc(F)cc2)c1-c1ccncc1
13 | – | 60% | 52% | – | O=S(=O)(NCCCc1[nH]nc(-c2ccc(F)cc2)c1-c1ccncc1)c1ccc(F)cc1F
14 | 6.48 | 36% | – | – | O=S(=O)(NCCc1[nH]nc(-c2ccc(F)cc2)c1-c1ccncc1)c1ccc(Cl)c(Cl)c1
15 | – | 27% | 45% | – | CCCCOc1ccc(NC(=O)NCCc2[nH]nc(-c3ccc(F)cc3)c2-c2ccncc2)cc1
16 | – | 17% | 70% | – | COc1ccc(S(=O)(=O)NCCc2[nH]nc(-c3ccc(F)cc3)c2-c2ccncc2)cc1OC
17 | 7.60 | 96% | – | – | Cc1cccc(S(=O)(=O)N[C@H](C)c2[nH]nc(-c3ccc(F)cc3)c2-c2ccncc2)c1
18 | – | – | 89% | 5.56 | N/C(=C(\N)S(=O)(=O)NCc1[nH]nc(-c2ccc(F)cc2)c1-c1ccncc1)c1ccccc1
19 | 6.08 | 39% | – | – | C[C@H](NS(=O)(=O)[C@]12CC[C@@H](CC1=O)C2(C)C)c1[nH]nc(-c2ccc(F)cc2)c1-c1ccncc1
20 | – | 28% | 32% | – | Cc1c(-c2ccncc2)c(-c2ccc(F)cc2)nn1CC(=O)N(C)CCN1CCOCC1
21 | – | 21% | 83% | – | O=C(NCc1[nH]nc(-c2ccc(F)cc2)c1-c1ccncc1)c1cccc(CCl)c1
22 | – | 24% | 51% | – | CCOC(=O)NC(=O)NCc1[nH]nc(-c2ccc(F)cc2)c1-c1ccncc1
23 | – | – | 78% | 5.74 | O=S(=O)(NCc1[nH]nc(-c2ccc(F)cc2)c1-c1ccncc1)c1cc(Cl)c(Cl)s1
24 | – | 52% | 75% | – | CN(C)C(=O)NCCc1[nH]nc(-c2ccc(F)cc2)c1-c1ccncc1
25 | – | 65% | 72% | – | O=C(NCCc1[nH]nc(-c2ccc(F)cc2)c1-c1ccncc1)C1CCC1
26 | – | 57% | 74% | – | O=S(=O)(NCCCc1[nH]nc(-c2ccc(F)cc2)c1-c1ccncc1)c1ccccc1
27 | – | 53% | 84% | – | CCCCS(=O)(=O)NCCc1[nH]nc(-c2ccc(F)cc2)c1-c1ccncc1
28 | – | – | 82% | 6.24 | CC(=O)O[C@H](C)C(=O)NCCCc1[nH]nc(-c2ccc(F)cc2)c1-c1ccncc1
29 | – | 24% | 61% | – | COc1ccc(CC(=O)NCCc2[nH]nc(-c3ccc(F)cc3)c2-c2ccncc2)cc1OC
